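Five concentrations, 48 hours, 96-well plates. GI50 is the concentration that inhibits growth by half.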 Active and inactive are the calls of the source. Cut-off read from the data, not from the text of the source: active = GI50 up to about 1.1 µM and inactive = higher.
Columns and labels:
Test in all cases: growth of human tumour cells (NCI), 48 h
A549 = system: A549
ACHN = system: ACHN
CAKI-1 = system: CAKI-1
COLO 205 = system: COLO 205
EKVX = system: EKVX
HL-60 = system: HL-60
HOP-62 = system: HOP-62
HOP-92 = system: HOP-92
K562 = system: K562
KM12 = system: KM12
LOX IMVI = system: LOX IMVI
Malme-3M = system: Malme-3M
NCI-H23 = system: NCI-H23
NCI-H460 = system: NCI-H460
NCI/ADR-RES = system: NCI/ADR-RES
OVCAR-4 = system: OVCAR-4
SN12C = system: SN12C
SW-620 = system: SW-620
UACC-257 = system: UACC-257

| SMILES | GI50 (A549) | GI50 (ACHN) | GI50 (CAKI-1) | GI50 (COLO 205) | GI50 (EKVX) | GI50 (HL-60) | GI50 (HOP-62) | GI50 (HOP-92) | GI50 (K562) | GI50 (KM12) | GI50 (LOX IMVI) | GI50 (Malme-3M) | GI50 (NCI-H23) | GI50 (NCI-H460) | GI50 (NCI/ADR-RES) | GI50 (OVCAR-4) | GI50 (SN12C) | GI50 (SW-620) | GI50 (UACC-257) |
| --- | --- | --- | --- | --- | --- | --- | --- | --- | --- | --- | --- | --- | --- | --- | --- | --- | --- | --- | --- |
| Cc1ccc(S(=O)(=O)N2C[C@@H]3CC[C@]4(CO[Si](C)(C)C(C)(C)C)N[C@@H](c5ccccc5)[C@H]2[C@H]34)cc1 | 22.4 µM (inactive) | 37.2 µM (inactive) | 27.2 µM (inactive) | 17.6 µM (inactive) | 34.2 µM (inactive) | 12.7 µM (inactive) | 44.2 µM (inactive) | 3.44 µM (inactive) | 9.02 µM (inactive) | 26.5 µM (inactive) | 28 µM (inactive) | 18.6 µM (inactive) | 11.4 µM (inactive) | 26.1 µM (inactive) | 25.9 µM (inactive) | 26.5 µM (inactive) | 19.6 µM (inactive) | 47.3 µM (inactive) | 23.9 µM (inactive) |
| Cc1cc(C)c2c(=O)cc(-c3ccccc3)[nH]c2c1 | 1.84 µM (inactive) | 4.65 µM (inactive) | 3.29 µM (inactive) | 1.17 µM (inactive) | 4.47 µM (inactive) | 0.479 µM (active) | 5.14 µM (inactive) | 19.1 µM (inactive) | 0.57 µM (active) | 0.548 µM (active) | 2.69 µM (inactive) | 2.71 µM (inactive) | 2.66 µM (inactive) | 1.92 µM (inactive) | 1.61 µM (inactive) | 9.71 µM (inactive) | 5.25 µM (inactive) | 0.738 µM (active) | 21.7 µM (inactive) |
| C/C(=C/CC[C@]1(CO)CC[C@]2(CO)[C@H](CC[C@@H]3[C@@]4(C)CC[C@H](OC5OCC(O)C(O)C5OC5OC(CO)C(O)C(O)C5O)C(C)(C)[C@@H]4CC[C@]32C)[C@H]1O)CO (stereo partly drawn) | > 100 µM (inactive) | > 100 µM (inactive) | > 100 µM (inactive) | > 100 µM (inactive) | > 100 µM (inactive) | > 100 µM (inactive) | > 100 µM (inactive) | > 100 µM (inactive) | > 100 µM (inactive) | > 100 µM (inactive) | > 100 µM (inactive) | 92.3 µM (inactive) | > 100 µM (inactive) | > 100 µM (inactive) | > 100 µM (inactive) | > 100 µM (inactive) | > 100 µM (inactive) | > 100 µM (inactive) | > 100 µM (inactive) |
| CC[C@@]1(O)C(=O)OCc2c1cc1n(c2=O)Cc2c-1nc1ccccc1c2/C=N\NC(=O)C(N)CC(C)C (stereo partly drawn) | 0.016 µM (active) | < 0.01 µM (active) | < 0.01 µM (active) | 0.708 µM (active) | 0.438 µM (active) | < 0.01 µM (active) | < 0.01 µM (active) | 0.0815 µM (active) | 0.0267 µM (active) | 0.152 µM (active) | < 0.01 µM (active) | 0.107 µM (active) | < 0.01 µM (active) | < 0.01 µM (active) | 0.0215 µM (active) | 0.44 µM (active) | < 0.01 µM (active) | 0.0887 µM (active) | 0.0536 µM (active) |
| CC(CC(=O)CO[C@H]1[C@H](O)[C@@H](O)[C@@H](O)[C@@H]2NC(=O)c3c(cc4c(c3O)OCO4)[C@H]21)OC1OC(CO)C(O)C(O)C1O (stereo partly drawn) | 0.646 µM (active) | 0.444 µM (active) | 0.857 µM (active) | 0.272 µM (active) | 0.553 µM (active) | 0.372 µM (active) | 0.366 µM (active) | 0.51 µM (active) | 0.309 µM (active) | 0.3 µM (active) | 0.255 µM (active) | 0.488 µM (active) | 0.441 µM (active) | 0.432 µM (active) | 0.543 µM (active) | 0.277 µM (active) | 0.322 µM (active) | 0.374 µM (active) | 0.594 µM (active) |
| COc1ccc(N2CN3OC(=O)N(c4ccc(OC)cc4)[C@@]3(c3ccccc3)C2)cc1 | 29 µM (inactive) | 61.9 µM (inactive) | 19.1 µM (inactive) | 13.4 µM (inactive) | 23.2 µM (inactive) | 2.77 µM (inactive) | 32.6 µM (inactive) | 15.9 µM (inactive) | 4.02 µM (inactive) | 6.46 µM (inactive) | 23 µM (inactive) | 10.8 µM (inactive) | 23.6 µM (inactive) | 16.6 µM (inactive) | 9.48 µM (inactive) | 20.3 µM (inactive) | 31.6 µM (inactive) | 6.04 µM (inactive) | 26.5 µM (inactive) |
| O=C1c2ccccc2C(=O)c2c1ccc(C1C(=O)c3ccccc3C1=O)c2-c1c(C2C(=O)c3ccccc3C2=O)ccc2c1C(=O)c1ccccc1C2=O | > 100 µM (inactive) | > 100 µM (inactive) | > 100 µM (inactive) | > 100 µM (inactive) | > 100 µM (inactive) | 7.89 µM (inactive) | > 100 µM (inactive) | > 100 µM (inactive) | 36.6 µM (inactive) | > 100 µM (inactive) | 74.3 µM (inactive) | > 100 µM (inactive) |  | > 100 µM (inactive) | > 100 µM (inactive) | > 100 µM (inactive) | > 100 µM (inactive) | 15.3 µM (inactive) | > 100 µM (inactive) |
| O=[N+]([O-])c1cccc2nccc(NCCN3CCOCC3)c12 | 18.2 µM (inactive) | 22.4 µM (inactive) | 2.6 µM (inactive) | 19.6 µM (inactive) | 10.7 µM (inactive) | 10.6 µM (inactive) | 15.5 µM (inactive) | 33.2 µM (inactive) | 11.8 µM (inactive) | 10.5 µM (inactive) | 13.4 µM (inactive) | 13.8 µM (inactive) | 11.7 µM (inactive) | 6.87 µM (inactive) | 29.4 µM (inactive) | 8.99 µM (inactive) | 16.3 µM (inactive) | 8.91 µM (inactive) | 10 µM (inactive) |
| C[C@H]1CC[C@@H]2[C@@H](C)C[C@H]3[C@@H]4C(C)(C)OC(=O)[C@]4(C)C(=O)[C@@]23C1=O | > 100 µM (inactive) | > 100 µM (inactive) | > 100 µM (inactive) | > 100 µM (inactive) | > 100 µM (inactive) | > 100 µM (inactive) | > 100 µM (inactive) | 85.5 µM (inactive) | > 100 µM (inactive) | > 100 µM (inactive) | > 100 µM (inactive) | > 100 µM (inactive) | > 100 µM (inactive) | > 100 µM (inactive) | > 100 µM (inactive) | > 100 µM (inactive) | > 100 µM (inactive) | > 100 µM (inactive) | > 100 µM (inactive) |
| Cc1ccc(-c2c(C#N)c(-c3ccc(Cl)cc3)c(C#N)c(=O)n2NS(=O)(=O)c2ccccc2)cc1 | 68.4 µM (inactive) | 46.9 µM (inactive) | 37.2 µM (inactive) | > 100 µM (inactive) | 77.4 µM (inactive) | 73.1 µM (inactive) | 23.4 µM (inactive) | 25.2 µM (inactive) | 88.1 µM (inactive) | 81.7 µM (inactive) | 42.3 µM (inactive) | > 100 µM (inactive) |  | 44.4 µM (inactive) | 26.9 µM (inactive) | 37.2 µM (inactive) | 95.1 µM (inactive) | > 100 µM (inactive) | > 100 µM (inactive) |
